Data as given in paper PMC11497069, “Novel Arf1 Inhibitors Drive Cancer Stem Cell Aging and Potentiate Anti‐Tumor Immunity” (Advanced Science, 2024).

Target: T1, Arf1 (Homo sapiens, UniProt P84077)
T1 construct: endogenous Arf1 in Huh7 cells, active form pulled down with GGA3 and detected with anti-Arf1 antibody
Assay: GGA3 pull-down of active Arf1, western blot
Format: cell-based
Conditions: Huh7 cells; GBF1-dependent Arf1 activation

T1 sequence (P84077 2-181): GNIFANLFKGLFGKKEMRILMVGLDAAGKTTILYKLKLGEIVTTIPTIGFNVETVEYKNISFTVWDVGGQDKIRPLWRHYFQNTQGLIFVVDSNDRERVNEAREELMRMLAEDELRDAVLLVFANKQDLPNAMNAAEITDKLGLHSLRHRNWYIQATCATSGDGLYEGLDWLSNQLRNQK

Compound | GGA3 pull-down of active Arf1, western blot
C(=N\Nc1ncnc2sc3c(c12)CCCC3)/c1ccc2[nH]ccc2c1 [DU101] | DU101 or DU102 treatment significantly inhibited Arf1 activity
C(=N\Nc1ncnc2sc3c(c12)CCCCCC3)/c1ccc2[nH]ccc2c1 [DU102] | DU101 or DU102 treatment significantly inhibited Arf1 activity
